Assay results published in US8741897B2, “Glucocorticoid mimetics, methods of making them, pharmaceutical compositions and uses thereof” (Boehringer Ingelheim Pharmaceuticals Inc., priority 2003, dated 2014).

test system: glucocorticoid receptor function; test: one or more of the above assays (GR binding and glucocorticoid receptor cell assays: aromatase, IL-6, TAT, MMTV-Luc, IL-8, ICAM-Luc); type: cell-based; conditions: assay not specified per compound

Compound	activity as agonists of the glucocorticoid receptor function in one or more of the above assays
COc1ccc(-c2ccccc2C#N)cc1C(C)(C)CC(O)(Cc1cc2cc(N3CCOCC3)ncc2[nH]1)C(F)(F)F (stereo not shown) [4′-Methoxy-3′-[4,4,4-trifluoro-3-hydroxy-1,1-dimethyl-3-(5-morpholin-4-yl-1 H-pyrrolo[2,3-c]pyridin-2-ylmethyl)butyl]biphenyl-2-carbonitrile]	potent agonists
COc1ccc(-c2ccccc2)cc1C(C)(C)CC(O)(Cc1cc2ccncc2[nH]1)C(F)(F)F (stereo not shown) [1,1,1-Trifluoro-4-(4-methoxybiphenyl-3-yl)-4-methyl-2-(1H-pyrrolo[2,3-c]pyridin-2-ylmethyl)pentan-2-ol]	potent agonists
CCc1cccc2[nH]c(CC(O)(CC(C)(C)c3cc(F)ccc3OC)C(F)(F)F)cc12 (stereo not shown) [2-(4-Ethyl-1H-indol-2-ylmethyl)-1,1,1-trifluoro-4-(5-fluoro-2-methoxyphenyl)-4-methylpentan-2-ol]	potent agonists
C[S+]([O-])c1ccc2[nH]c(CC(O)(CC(C)(C)c3cc(F)cc4c3OCC4)C(F)(F)F)cc2c1 (stereo not shown) [1,1,1-Trifluoro-4-(5-fluoro-2,3-dihydrobenzofuran-7-yl)-2-(5-methanesulfinyl-1H-indol-2-ylmethyl)-4-methylpentan-2-ol]	potent agonists
Cc1ccc(F)cc1C(C)(C)CC(O)(Cc1cc2nnccc2[nH]1)C(F)(F)F (stereo not shown) [1,1,1-Trifluoro-4-(5-fluoro-2-methylphenyl)4-methyl-2-(5H-pyrrolo[3,2-c]pyridazin-6-ylmethyl)pentan-2-ol]	potent agonists
COc1ccc(F)cc1C(C)(C)CC(O)(Cc1cc2ccncc2[nH]1)C(C)(C)C (stereo not shown) [5-(5-Fluoro-2-methoxyphenyl)-2,2,5-trimethyl-3-(1H-pyrrolo[2,3-c]pyridin-2-ylmethyl)hexan-3-ol]	agonists
COc1ccc(-c2cccc(C#N)c2)cc1C(C)(C)CC(O)(Cc1cc2ccncc2[nH]1)C(F)(F)F (stereo not shown) [4′-Methoxy-3′-[4,4,4-trifluoro-3-hydroxy-1,1-dimethyl-3-(1H-pyrrolo[2,3-c]pyridin-2-ylmethyl)butyl]biphenyl-3-carbonitrile]	potent agonists
CC(C)C(O)(Cc1cc2cc(-c3ccccc3)ncc2[nH]1)CC(C)(C)c1cc(Cl)cc2c1OCC2 (stereo not shown) [5-(5-Chloro-2,3-dihydrobenzofuran-7-yl)-2,5-dimethyl-3-(5-phenyl-1H-pyrrolo[2,3-c]pyridin-2-ylmethyl)hexan-3-ol]	agonists
CC(C)(CC(O)(Cc1cc2ncncc2[nH]1)C(F)(F)F)c1cc(F)ccc1O (stereo not shown) [4-Fluoro-2-[4,4,4-trifluoro-3-hydroxy-1,1-dimethyl-3-(5H-pyrrolo[3,2-d]pyrimidin-6-ylmethyl)butyl]phenol]	potent agonists
Cc1nccc2[nH]c(CC(O)(CC(C)(C)c3ccc(F)cc3O)C(F)(F)F)cc12 (stereo not shown) [5-Fluoro-2-[4,4,4-trifluoro-3-hydroxy-1,1-dimethyl-3-(4-methyl-1H-pyrrolo[3,2-c]pyridin-2-ylmethyl)butyl]phenol]	potent agonists
CC(C)(CC(O)(Cc1cc2cc(C#N)ccc2[nH]1)C(F)(F)F)c1cc(S(C)(=O)=O)cc2c1OCC2 (stereo not shown) [2-[2-Hydroxy-4-(5-methanesulfonyl-2,3-dihydrobenzofuran-7-yl)-4-methyl-2-trifluoromethylpentyl]-1H-indole-5-carbonitrile]	potent agonists
CC(C)(CC(O)(Cn1ccc2ncccc21)C(F)(F)F)c1cc(S(C)(=O)=O)cc2c1OCC2 (stereo not shown) [1,1,1-Trifluoro-4-(5-methanesulfonyl-2,3-dihydrobenzofuran-7-yl)-4-methyl-2-pyrrolo[3,2-b]pyridin-1-ylmethylpentan-2-ol]	potent agonists
COc1ccc(F)cc1C(C)(C)CC(O)(Cc1cc2cc(N3CCOCC3)ncc2[nH]1)C(F)(F)F (stereo not shown) [1,1,1-Trifluoro-4-(5-fluoro-2-methoxyphenyl)-4-methyl-2-(5-morpholin-4-yl-1H-pyrrolo[2,3-c]pyridin-2-ylmethyl)pentan-2-ol]	potent agonists
COc1ccc(Br)cc1C(C)(C)CC(O)(Cc1cc2cc(Cl)ncc2[nH]1)C(F)(F)F (stereo not shown) [4-(5-Bromo-2-methoxyphenyl)-2-(5-chloro-1H-pyrrolo[2,3-c]pyridin-2-ylmethyl)-1,1,1-trifluoro-4-methylpentan-2-ol]	potent agonists
COc1ccc(F)cc1C(C)(C)CC(O)(Cc1cc2ccncc2[nH]1)C(F)F (stereo not shown) [1,1-Difluoro-4-(5-fluoro-2-methoxyphenyl)-4-methyl-2-(1H-pyrrolo[2,3-c]pyridin-2-ylmethyl)pentan-2-ol]	agonists
CN(C)c1cc2cc(CC(O)(CC(C)(C)c3ccccc3)C(F)(F)F)[nH]c2cn1 (stereo not shown) [2-(5-Dimethylamino-1H-pyrrolo[2,3-c]pyridin-2-ylmethyl)-1,1,1-trifluoro-4-methyl-4-phenylpentan-2-ol]	potent agonists

Compound	activity as agonists of the glucocorticoid receptor function in one or more of the above assays
Cc1cc2[nH]c(CC(O)(CC(C)(C)c3cc(Cl)cc4c3OCC4)C(F)F)cc2cn1 (stereo not shown) [4-(5-Chloro-2,3-dihydrobenzofuran-7-yl)-1,1-difluoro-4-methyl-2-(6-methyl-1H-pyrrolo[3,2-c]pyridin-2-ylmethyl)pentan-2-ol]	agonists
CC(C)C(O)(Cc1cc2cnccc2[nH]1)CC(C)(C)c1cc(Cl)cc2c1OCC2 (stereo not shown) [5-(5-Chloro-2,3-dihydrobenzofuran-7-yl)-2,5-dimethyl-3-(1H-pyrrolo[3,2-c]pyridin-2-ylmethyl)hexan-3-ol]	agonists
CC(C)(CC(O)(Cc1cc2nc(C(N)=O)ccc2[nH]1)C(F)(F)F)c1cc(Cl)cc2c1OCC2 (stereo not shown) [2-[4-(5-Chloro-2,3-dihydrobenzofuran-7-yl)-2-hydroxy-4-methyl-2-trifluoromethylpentyl]-1H-pyrrolo[3,2-b]pyridine-5-carboxylic acid amide]	potent agonists
CSc1cc2c(c(C(C)(C)CC(O)(Cn3ccc4ncccc43)C(F)(F)F)c1)OCC2 (stereo not shown) [1,1,1-Trifluoro-4-methyl-4-(5-methylsulfanyl-2,3-dihydrobenzofuran-7-yl)-2-pyrrolo[3,2-b]pyridin-1-ylmethylpentan-2-ol]	potent agonists
CC(C)(CC(O)(Cc1cc2nc(CO)ccc2[nH]1)C(F)(F)F)c1cc(Cl)cc2c1OCC2 (stereo not shown) [4-(5-Chloro-2,3-dihydrobenzofuran-7-yl)-1,1,1-trifluoro-2-(5-hydroxymethyl-1H-pyrrolo[3,2-b]pyridin-2-ylmethyl)-4-methylpentan-2-ol]	potent agonists
COc1ccc(-c2cccnc2)cc1C(C)(C)CC(O)(Cc1cc2cnccc2[nH]1)C(F)(F)F (stereo not shown) [1,1,1-Trifluoro-4-(2-methoxy-5-pyridin-3-ylphenyl)-4-methyl-2-(1H-pyrrolo[3,2-c]pyridin-2-ylmethyl)pentan-2-ol]	potent agonists
CN(C)Cc1c(CC(O)(CC(C)(C)c2cc(F)ccc2O)C(F)(F)F)[nH]c2ccncc12 (stereo not shown)	potent agonists
CN(C)c1cc2cc(CC(O)(CC(C)(C)c3ccc(F)cc3O)C(F)(F)F)[nH]c2cn1 (stereo not shown) [2-[3-(5-Dimethylamino-1H-pyrrolo[2,3-c]pyridin-2-ylmethyl)-4,4,4-trifluoro-3-hydroxy-1,1-dimethylbutyl]-5-fluorophenol]	potent agonists
CC(C)(CC(O)(Cc1cc2nc(Cl)ncc2[nH]1)C(F)(F)F)c1cc(Cl)cc2c1OCC2 (stereo not shown) [4-(5-Chloro-2,3-dihydrobenzofuran-7-yl)-2-(2-chloro-5H-pyrrolo[3,2-d]pyrimidin-6-ylmethyl)-1,1,1-trifluoro-4-methylpentan-2-ol]	potent agonists
CC(C)(CC(O)(Cc1cc2cnccc2[nH]1)C(F)(F)F)c1cc(-c2cccnc2)ccc1O (stereo not shown) [4-Pyridin-3-yl-2-[4,4,4-trifluoro-3-hydroxy-1,1-dimethyl-3-(1H-pyrrolo[3,2-c]pyridin-2-ylmethyl)butyl]phenol]	potent agonists
CC(=O)c1ccc2[nH]c(CC(O)(CC(C)(C)c3cc(Cl)cc4c3OCC4)C(F)(F)F)cc2n1 (stereo not shown) [1-{2-[4-(5-Chloro-2,3-dihydrobenzofuran-7-yl)-2-hydroxy-4-methyl-2-trifluoromethylpentyl]-1H-pyrrolo[3,2-b]pyridin-5-yl}ethanone]	potent agonists
CC(C)(CC(O)(Cc1cc2ccc(C#N)cc2[nH]1)C(F)(F)F)c1cc(S(C)(=O)=O)cc2c1OCC2 (stereo not shown) [2-[2-Hydroxy-4-(5-methanesulfonyl-2,3-dihydrobenzofuran-7-yl)-4-methyl-2-trifluoromethylpentyl]-1H-indole-6-carbonitrile]	potent agonists
CC(C)(CC(O)(Cc1cc2ccncc2[nH]1)C(F)(F)F)c1cc(-c2ccccc2)ccc1O (stereo not shown) [3-[4,4,4-Trifluoro-3-hydroxy-1,1-dimethyl-3-(1H-pyrrolo[2,3-c]pyridin-2-ylmethyl)butyl]biphenyl-4-ol]	potent agonists
COc1ccc(-c2cccnc2)cc1C(C)(C)CC(O)(Cc1[nH]c2cnccc2c1C)C(F)(F)F (stereo not shown) [1,1,1-Trifluoro-4-(2-methoxy-5-pyridin-3-ylphenyl)-4-methyl-2-(3-methyl-1H-pyrrolo[2,3-c]pyridin-2-ylmethyl)pentan-2-ol]	potent agonists
CC(C)(CC(O)(Cc1cc2cnccc2[nH]1)C(F)(F)F)c1cccc(-c2cncnc2)c1 (stereo not shown) [1,1,1-Trifluoro-4-methyl-4-(3-pyrimidin-5-ylphenyl)-2-(1H-pyrrolo[3,2-c]pyridin-2-ylmethyl)pentan-2-ol]	potent agonists
